target: Human Factor D (Homo sapiens (Human), UniProt P00746); experiment: Human Factor D Assay; type: biochemical; conditions: Factor D inhibition, assay of Example 10; read-out: IC5 (Stars)
Experimental: The assay of Example 10 was used to determine the IC50's of the compounds. Other standard factor D inhibition assays are also available.
Human Factor D (purified from human serum, Complement Technology, Inc.) at 80 nM final concentration is incubated with test compound at various concentrations for 5 min at room temperature in 50 mM Tris, 1M NaCl, pH 7.5. A synthetic substrate Z-L-Lys-SBz and DTNB (Ellman's reagent) are added to final concentrations of 100 μM each. Absorbance at 405 nm (A405) is recorded at 30 second intervals for 30 min using a microplate spectrophotometer. IC50 values are calculated by nonlinear regression of complement Factor D reaction rates as a function of test compound concentration.

Sequence of Human Factor D (P00746 26-253): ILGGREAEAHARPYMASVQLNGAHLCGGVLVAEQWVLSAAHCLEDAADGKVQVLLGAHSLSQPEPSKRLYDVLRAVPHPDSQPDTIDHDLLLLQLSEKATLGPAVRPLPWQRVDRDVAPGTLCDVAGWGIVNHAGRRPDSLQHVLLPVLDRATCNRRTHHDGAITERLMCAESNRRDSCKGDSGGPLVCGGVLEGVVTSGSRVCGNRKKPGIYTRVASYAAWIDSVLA

**Q.** How did the IC50 turn out when `CC(=O)c1nn(CC(=O)N2C[C@](C)(F)C[C@H]2C(=O)Nc2nc(Br)ccc2C)c2c(C)cc(-c3cnc(C)nc3)cc12` [Compound 433, (2S,4R)-1-(2-(3-acetyl-7-methyl-5-(2-methylpyrimidin-5-yl)-1H-indazol-1-yl)acetyl)-N-(6-bromo-3-methylpyridin-2-yl)-4-fluoro-4-methylpyrrolidine-2-carboxamide] was run?
**A.** < 1 µM

**Q.** `CC(=O)c1nn(CC(=O)N2[C@H](C(=O)Nc3nc(Br)c(F)cc3C)C[C@@]3(CN4C[C@H]5CCC[C@H]5C4)C[C@@H]23)c2cnc(-c3cnc(C)nc3)cc12` [Compound 253, (1R,3S,5R)-2-(2-(3-acetyl-5-(2-methylpyrimidin-5-yl)-1H-pyrazolo[3,4-c]pyridin-1-yl)acetyl)-N-(6-bromo-5-fluoro-3-methylpyridin-2-yl)-5-(((3aR,6aS)-hexahydrocyclopenta [c]pyrrol-2(1H)-yl)methyl)-2-azabicyclo[3.1.0]hexane-3-carboxamide] was tested. Which IC50 did it give?
**A.** < 1 µM

**Q.** For `CC(=O)c1nn(CC(=O)N2[C@H](C(=O)Nc3nc(Br)ccc3C)C[C@@]3(CN4CC5(CC5)C4)C[C@@H]23)c2c(CF)cc(-c3cnc(C)nc3)cc12` [Compound 369, (1R,3S,5R)-5-(5-azaspiro[2.3]hexan-5-ylmethyl)-2-(2-(3-acetyl-7-(fluoromethyl)-5-(2-methylpyrimidin-5-yl)-1H-indazol-1-yl)acetyl)-N-(6-bromo-3-methylpyridin-2-yl)-2-azabicyclo[3.1.0]hexane-3-carboxamide], which IC50 is on record?
**A.** < 1 µM

**Q.** How did the IC50 turn out when `CC(=O)c1c(C)n(CC(=O)N2[C@H](C(=O)Nc3nc(Br)ccc3C)C[C@@]3(C)C[C@@H]23)c2ccc(-c3cnc(C)nc3)cc12` [Compound 483, (1R,3S,5R)-2-(2-(3-acetyl-2-methyl-5-(2-methylpyrimidin-5-yl)-1H-indol-1-yl)acetyl)-N-(6-bromo-3-methylpyridin-2-yl)-5-methyl-2-azabicyclo[3.1.0]hexane-3-carboxamide] was run?
**A.** < 1 µM

**Q.** How did the IC50 turn out when `CC(=O)c1nn(CC(=O)N2[C@@H](C(=O)Nc3nc(Br)ccc3C)C[C@]3(CC#N)C[C@H]23)c2cnc(-c3cnc(C)nc3)cc12` [Compound 240, (1S,3R,5S)-2-(2-(3-acetyl-5-(2-methylpyrimidin-5-yl)-1H-pyrazolo[3,4-c]pyridin-1-yl)acetyl)-N-(6-bromo-3-methylpyridin-2-yl)-5-(cyanomethyl)-2-azabicyclo[3.1.0]hexane-3-carboxamide] was run?
**A.** 1 to 10 µM

**Q.** Which IC50 does the source give for `CC(=O)c1nn(CC(=O)N2[C@H](C(=O)Nc3nc(Br)ccc3C)C[C@@]3(CNC(C)(C)C)C[C@@H]23)c2ccc(-c3cnc(C)nc3)cc12` [Compound 307, (1R,3S,5R)-2-(2-(3-acetyl-5-(2-methylpyrimidin-5-yl)-1H-indazol-1-yl)acetyl)-N-(6-bromo-3-methylpyridin-2-yl)-5-((tert-butylamino)methyl)-2-azabicyclo[3.1.0]hexane-3-carboxamide] here?
**A.** < 1 µM

**Q.** For `CC(=O)c1nn(CC(=O)N2[C@H](C(=O)Nc3nc(Br)ccc3C)C[C@@]3(c4cc(C(C)C)no4)C[C@@H]23)c2ccc(-c3cnc(C)nc3)cc12` [Compound 333, (1R,3S,5S)-2-(2-(3-acetyl-5-(2-methylpyrimidin-5-yl)-1H-indazol-1-yl)acetyl)-N-(6-bromo-3-methylpyridin-2-yl)-5-(3-isopropylisoxazol-5-yl)-2-azabicyclo[3.1.0]hexane-3-carboxamide], which IC50 is on record?
**A.** < 1 µM

**Q.** Which IC50 does the source give for `CC(=O)c1nn(CC(=O)N2[C@H](C(=O)N[C@@H](C)COC(F)(F)F)C[C@@]3(C)C[C@@H]23)c2ccc(-c3cnc(C)nc3)cc12` [Compound 554, (1R,3S,5R)-2-(2-(3-acetyl-5-(2-methylpyrimidin-5-yl)-1H-indazol-1-yl)acetyl)-5-methyl-N-((S)-1-(trifluoromethoxy)propan-2-yl)-2-azabicyclo[3.1.0]hexane-3-carboxamide] here?
**A.** < 1 µM

**Q.** `CC(=O)c1cn(CC(=O)N2[C@H](C(=O)Nc3nc(Br)ccc3C)C[C@@]3(C)C[C@@H]23)c2c(C)nc(-c3cnc(C)nc3)cc12` [Compound 472, (1R,3S,5R)-2-(2-(3-Acetyl-7-methyl-5-(2-methylpyrimidin-5-yl)-1H-pyrrolo[2,3-c]pyridin-1-yl)acetyl)-N-(6-bromo-3-methylpyridin-2-yl)-5-methyl-2-azabicyclo[3.1.0]hexane-3-carboxamide] was tested. Which IC50 did it give?
**A.** < 1 µM

same assay, conditions: Table 6; Factor D 80 nM, substrate Z-L-Lys-SBz; read-out: IC50

**Q.** How did the IC50 turn out when `CC(=O)c1nn(CC(=O)N2[C@H](C(=O)Nc3nc(Br)ccc3C)C[C@@]3(CN(CCF)CCF)C[C@@H]23)c2c(C)cc(-c3cnc(C)nc3)cc12` [Compound 176] was run?
**A.** < 1 µM

**Q.** For `CC(=O)c1nn(CC(=O)N2C[C@H](F)C[C@H]2C(=O)Nc2cccc(Br)n2)c2c(CN(C)C)cc(-c3cnc(C)nc3)cc12` [Compound 19, (2S,4R)-1-(2-(3-Acetyl-7-((dimethylamino)methyl)-5-(2-methylpyrimidin-5-yl)-1H-indazol-1-yl)acetyl)-N-(6-bromopyridin-2-yl)-4-fluoropyrrolidine-2-carboxamide], which IC50 is on record?
**A.** < 1 µM

**Q.** Which IC50 does the source give for `CC(=O)c1nn(CC(=O)N2[C@H](C(=O)Nc3nc(Cl)ccc3CN(C)C)C[C@@]3(C)C[C@@H]23)c2ccc(-c3cnc(C)nc3)cc12` [Compound 135, (1R,3S,5R)-2-(2-(3-Acetyl-5-(2-methylpyrimidin-5-yl)-1H-indazol-1-yl)acetyl)-N-(6-chloro-3-((dimethylamino)methyl)pyridin-2-yl)-5-methyl-2-azabicyclo[3.1.0]hexane-3-carboxamide] here?
**A.** < 1 µM

**Q.** How did the IC50 turn out when `CC(=O)c1nn(CC(=O)N2C[C@H](F)C[C@H]2C(=O)N2C[C@H](F)C[C@H]2C(=O)Nc2cccc(Br)n2)c2ccc(-c3cnc(C)nc3)cc12` [Compound 7, (2S,4R)-1-((2S,4R)-1-(2-(3-acetyl-5-(2-methylpyrimidin-5-yl)-1H-indazol-1-yl)acetyl)-4-fluoropyrrolidine-2-carbonyl)-N-(6-bromopyridin-2-yl)-4-fluoropyrrolidine-2-carboxamide] was run?
**A.** 1 to 10 µM

**Q.** How did the IC50 turn out when `C=CCOCc1ccc(Br)nc1NC(=O)[C@@H]1C[C@@]2(CN(C)CC=C)C[C@H]2N1C(=O)Cn1nc(C(C)=O)c2cc(-c3cnc(C)nc3)ccc21` [Compound 70, (1R,3S,5R)-2-(2-(3-Acetyl-5-(2-methylpyrimidin-5-yl)-1H-indazol-1-yl)acetyl)-5-((allyl(methyl)amino)methyl)-N-(3-((allyloxy)methyl)-6-bromopyridin-2-yl)-2-azabicyclo[3.1.0]hexane-3-carboxamide] was run?
**A.** < 1 µM

**Q.** For `COc1ncc(-c2ccc3c(c2)c(C(C)=O)nn3CC(=O)N2[C@H](C(=O)Nc3cccc(Br)n3)C[C@@]3(C)C[C@@H]23)cn1` [Compound 108, (1R,3S,5R)-2-(2-(3-Acetyl-5-(2-methoxypyrimidin-5-yl)-1H-indazol-1-yl)acetyl)-N-(6-bromopyridin-2-yl)-5-methyl-2-azabicyclo[3.1.0]hexane-3-carboxamide], which IC50 is on record?
**A.** < 1 µM

same assay, conditions: Table 8; Factor D 80 nM, substrate Z-L-Lys-SBz; read-out: IC50

**Q.** For `COC(=O)CCCCCCCCCCCCCCCCC(=O)N[C@@H](CCC(=O)NCCOCCOCC(=O)NCCOCCOCC(=O)NC[C@@]12C[C@@H](C(=O)Nc3nc(Br)ccc3C)N(C(=O)Cn3nc(C(C)=O)c4cc(-c5cnc(C)nc5)cc(C)c43)[C@@H]1C2)C(=O)OC` [Compound 391, Methyl (S)-1-((1R,3S,5R)-2-(2-(3-acetyl-7-methyl-5-(2-methylpyrimidin-5-yl)-1H-indazol-1-yl)acetyl)-3-((6-bromo-3-methylpyridin-2-yl)carbamoyl)-2-azabicyclo[3.1.0]hexan-5-yl)-24-(methoxycarbonyl)-3,12,21,26-tetraoxo-5,8,14,17-tetraoxa-2,11,20,25-tetraazatritetracontan-43-oate], which IC50 is on record?
**A.** < 1 µM

Source: patent publication US11084800B2 (Achillion Pharmaceuticals, Inc., priority 2017, dated 2021)
